In paper PMC3935458 (Journal of medicinal chemistry, 2012):

Experiments:
[1] = system: phosphorylation of C-Nap1; test: Phosphorylated C-Nap1 in cell assay; settings: for modulation of C-Nap1 phosphorylation: aphidicolin-synchronized U2OS cells, different concentrations
Nek2 = molecular target: T1, Nek2 (Homo sapiens, UniProt P51955); assay type: biochemical
T1 sequence (P51955 1-445): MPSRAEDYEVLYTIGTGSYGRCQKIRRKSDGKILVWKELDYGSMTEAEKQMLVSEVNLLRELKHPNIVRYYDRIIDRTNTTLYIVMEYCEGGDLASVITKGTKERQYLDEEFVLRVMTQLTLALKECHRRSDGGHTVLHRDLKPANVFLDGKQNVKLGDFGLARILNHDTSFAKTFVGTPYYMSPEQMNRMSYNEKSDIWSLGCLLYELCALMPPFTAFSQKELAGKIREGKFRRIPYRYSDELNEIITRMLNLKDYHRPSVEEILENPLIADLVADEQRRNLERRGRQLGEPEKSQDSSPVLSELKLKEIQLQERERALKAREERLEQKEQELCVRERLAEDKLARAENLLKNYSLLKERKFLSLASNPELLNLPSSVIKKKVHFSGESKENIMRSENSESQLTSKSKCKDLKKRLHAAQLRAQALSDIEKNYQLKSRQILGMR

Compound | modulation of C-Nap1 phosphorylation [1] | further results
CC(Oc1cc(-n2cnc3cc(OC4CCN(C)CC4)ccc32)ccc1C(N)=O)c1ccccc1C(F)(F)F (racemic) [rac-3, reference compound] | did not show any significant modulation of C-Nap1 phosphorylation | –
CC(Oc1cc(-c2cc(-c3ccc(CN4CCOCC4)s3)cnc2N)ccc1C(N)=O)c1ccccc1C(F)(F)F (stereo not shown) [17g] | – | increase of Nek2 IC50 compared with compound 17c (Nek2): more than 7 fold
C[C@@H](Oc1cc(-c2cc(-c3cc(CN(C)C)cs3)cnc2N)ccc1C(N)=O)c1ccccc1C(F)(F)F [(R)-17j] | – | IC50 ([1]; Homo sapiens, U2OS, 3 h, read-out: IC50 for C-Nap1 phosphorylation inhibition): 2.7 µM
C[C@@H](/C=C\C(F)(F)F)Oc1cc(-c2cc(-c3cc(CN(C)C)cs3)cnc2N)ccc1C(N)=O [(S)-21, (S)-(Z)-4-(2-Amino-5-(4-((dimethylamino)methyl)thiophen-2-yl)pyridin-3-yl)-2-((5,5,5-trifluoropent-3-en-2-yl)oxy)benzamide] | significantly less suppression of C-Nap1 phosphorylation | –
